Laboratory results from paper PMC6213633, “Induction of ATP Release, PPIX Transport, and Cholesterol Uptake by Human Red Blood Cells Using a New Family of TSPO Ligands” (International Journal of Molecular Sciences, 2018).
Like-named read-outs stand apart in the source and are kept apart here.

Tests used:
[1] = Hemolysis induced by TSPO ligands (Hb release, absorption at 405 nm); type: cell-based; settings: human, Hb released, mean ± SEM, N = 4, read-out: Hemolysis induced by TSPO ligands treatment
Method: Hemolysis leads to hemoglobin (Hb) release into the extracellular milieu, where the Hb content can be quantified by monitoring light absorption, at 405 nm. Using this procedure, we previously observed that the amount of Hb was proportional to the amount of lysed RBCs. The Hb content of the samples was determined as described above. Then, the amount of lytic ATP contributing to [ATPe] was estimated from the total amount of hemolysis cells (calculated as described above) and the intracellular ATP content of the RBCs, which under the experimental conditions was 148 pmol ATP per 10^6 RBCs, as previously reported by our group.

[2] = tested on: healthy and P. falciparum-infected RBCs; assay: ZnPPIX uptake in healthy and infected RBCs (flow cytometry); type: cell-based, human; settings: 20 µM ZnPPIX, 50 µM ligand
Method: Figure 2 ZnPPIX uptake in healthy and infected RBCs induced by TSPO ligands. Healthy RBC (A) and infected RBC (B) at 2 to 5% parasitemia were incubated in the presence of 20 µM ZnPPIX and 50 µM TSPO ligands, and the uptake of ZnPPIX was assessed at different time points by flow cytometry. MFI values were normalized to background levels for the control and the ligand-treated conditions. Data are presented as the mean ± SEM; N = 7. Statistical analyses were performed for each ligand and the control condition. Differences were considered significant when * p < 0.05; ** p < 0.01; *** p < 0.001.
P. falciparum cultures were incubated at 2–5% parasitemia (synchronized cultures, ring and trophozoite stages) in 200 µL of RPMI 10% Albumax containing 20 µM ZnPPIX. […] Cultures were kept at 37 °C, in the dark, for 3 to 18 h and further analyzed by FACS.
(§1) Fluorescence measurements in all samples of the P. falciparum’s viability, ZnPPIX uptake, cholesterol uptake, and ROS accumulation assays, were performed with a FACSCanto (BD Biosciences, Rungis, France) and further analyzed with Flowjo-3 software. […] ZnPPIX (Ex.: 488 nm, Em.: 585/42 nm), TopFluor Cholesterol (Ex.: 495 nm, Em.: 507 nm) and DCFDA (Ex.: 488 nm, Em.: 530/30 nm) levels were measured in both the infected and non-infected RBC populations, results were normalized to the corresponding solvent for each ligand.

[3] = tested on: P. falciparum-infected RBCs; assay: Sorbitol-induced hemolysis in infected RBCs; type: cell-based, human; settings: 50 µM ligand
Method: Figure 4 Sorbitol-induced hemolysis is modulated by the TSPO ligands in infected red blood cells. Infected RBCs at 2 to 5 % parasitemia were washed three times in a culture medium, without serum, and resuspended at 50% hematocrit in a media containing 10 μM (A) or 50 μM (B) TSPO ligands. Hemolysis was quantified at several time-points, by absorption at 540 nm wavelength. Data are presented as mean ± SEM; N = 4. Differences between each ligand and control condition (vehicle) were considered significant when p < 0.01.
Sorbitol hemolysis assays were carried as previously described using hemoglobin release to estimate lysis time. Monoexponential functions were fitted to the data from the sorbitol-induced hemolysis (%) (Figure 4), at different times of exposure to the ligands. Half time values (t1/2) for hemolysis were then calculated as t1/2= ln (2)/k, where k is the rate coefficient of the exponential curve.

[4] = tested on: healthy and P. falciparum-infected RBCs; assay: TopFluor Cholesterol uptake by RBCs (flow cytometry); type: cell-based, human; settings: 50 µM ligand; for effect on cholesterol uptake: healthy and infected RBCs
Method: Figure 5 Cholesterol uptake induced by TSPO ligands. Healthy (A) or infected red blood cells, at 2 to 5% parasitemia (B) were incubated in the presence of TopFluor Cholesterol and 50 µM of TSPO ligands. Cholesterol uptake was assessed at different time points by flow cytometry. MFI values were normalized to vehicle treated cells. Data are presented as mean ± SEM; N = 4. Differences between each ligand and control condition (vehicle) were considered significant when * p < 0.05.
Cholesterol uptake was measured using TopFluor Cholesterol and 50 µM of TSPO ligands. Cholesterol uptake was assessed at different time points by flow cytometry. Mean Fluorescent Intensity (MFI) values were normalized to vehicle treated cells.
Fluorescence measurements in all samples of the P. falciparum’s viability, ZnPPIX uptake, cholesterol uptake, and ROS accumulation assays, were performed with a FACSCanto (BD Biosciences, Rungis, France) and further analyzed with Flowjo-3 software. Infected-RBCs were distinguished from non-infected ones contained in the same culture by TOPRO-3 signaling (1/2, 500), with the negative level established with the same non-infected RBCs used for parasite culture. ZnPPIX (Ex.: 488 nm, Em.: 585/42 nm), TopFluor Cholesterol (Ex.: 495 nm, Em.: 507 nm) and DCFDA (Ex.: 488 nm, Em.: 530/30 nm) levels were measured in both the infected and non-infected RBC populations, results were normalized to the corresponding solvent for each ligand.

[5] = tested on: human red blood cells; assay: ATP release from RBCs (luciferase luminometry); type: cell-based; settings: for induction of ATP release (comparison between ligands): 10 or 30 µM ligand, 37 °C, 10% hematocrit; for ligand-induced ATP release in presence of VDAC blocker Bcl-XLBH4: Bcl-XLBH4 10 µM; for ligand-induced ATP release in presence of pannexin-1 inhibitors: carbonexolone 10 µM or probenecid 10 µM
Method: Figure 6 TSPO ligand-induced ATP release. ATP release from human red blood cells was measured at 37 °C, 10% Hematocrit, as described in material and methods. Values are the ratio between extracellular ATP (ATPe) levels after and before the addition of TSPO ligands. […] Results are expressed as means ± SEM and considered different from basal (vehicle, unstimulated) values when * p < 0.05; ** p < 0.01 or from those incubated in the presence of Bcl-XLBH4 when ^# p < 0.05 and ^## p < 0.01; N = 7.
Extracellular ATP (ATPe) concentration was measured by quantitative luminometry using firefly luciferase, which catalyzes the oxidation of luciferin in the presence of ATP to produce light as previously described. The ATPe concentration was determined at discrete times (offline). Changes in [ATPe] over time were used to estimate ATP release from RBCs.
10 µL of RBCs at 10% hematocrit were incubated for 10 min, at 37 °C, in the presence of the ligand, or of an equal vehicle volume, with 30 µL of MKB medium. At discrete times, samples were centrifuged at 450× g for 3 min, at RT. Paired samples were taken to assess ATPe and hemolysis. The supernatants were stored at −20 °C, prior to the analysis. Then, 4.5 µL of the supernatant samples were added to 45 µL of the luminometry mix (MKB medium containing 0.01 µM luciferase, 0.2 mM luciferin, and 0.1 mg/mL of Coenzyme A) and placed in the assay chamber of the luminometer to determine the light intensity. At the end of the incubations, the time course of light emission was transformed into the ATPe concentration versus time using a calibration curve, with ATP stock solutions ranging from 1 to 50 µM. The results were expressed as ΔATPe (i.e., the ratio of [ATPe] before and after the addition of a given stimulus).
The increase in [ATPe] due to regulated ATP release was calculated by taking the experimentally-measured [ATPe] and subtracting the estimated [ATPe] due to hemolysis. Except where otherwise stated, the results of ATP release experiments reflected the ATP release from non-lytic origin.

[6] = tested on: human red blood cells; parameters: method as in PMID 30061676; settings: cited from earlier work
[7] = biological target: T1, TSPO2-expressing RBC membranes (Homo sapiens, UniProt Q5TGU0); assay: (3H) PK 11195 displacement binding on RBCs; parameters: endogenous in cells; host or cells: human red blood cells purified from fresh blood of healthy volunteers
T1 sequence (Q5TGU0 1-170): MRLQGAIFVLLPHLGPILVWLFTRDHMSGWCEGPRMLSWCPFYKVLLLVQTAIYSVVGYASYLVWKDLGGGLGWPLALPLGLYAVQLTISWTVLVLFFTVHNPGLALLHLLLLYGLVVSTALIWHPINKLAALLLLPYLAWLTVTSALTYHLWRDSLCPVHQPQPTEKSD
Method: The affinity of the ligands for the RBC membranes was assessed by typical displacement experiments. RBCs were exposed to 10 nM (^3H) PK 11195 and increasing concentrations of non-radiolabeled TSPO ligands.
RBCs were washed twice in phosphate buffer saline (PBS) (pH 7.4). Samples were incubated in a final incubation volume of 0.3 mL, in the presence of (^3H) PK 11195 (Perkin Elmer, Courtaboeuf, France; 83.5 Ci/mmol) and increasing concentrations of unlabeled TSPO ligands, at room temperature (RT). After 30 min incubation, assays were stopped by filtration through Whatman GF/C filters. Radioactivity trapped on the filters was determined by liquid scintillation counting (Tri-Carb 2800TR, Perkin-Elmer, Courtaboeuf, France).

[8] = tested on: TSPO1-enriched rat heart microsomes; parameters: method as in doi:10.1002/slct.201701565; settings: cited from earlier work
[9] = tested on: P. falciparum strain FCR3; assay: P. falciparum growth inhibition (flow cytometry of parasitemia); type: cell-based, Plasmodium falciparum; settings: 10 and 50 µM
Method: Figure 1 TSPO ligands inhibited the P. falciparum growth. Infected RBCs were diluted to 1% parasitemia, and maintained at 1–5%, by dilution, for […]. Percentages of growth-inhibition were obtained, after two parasite cycles, by the flow cytometry analysis of parasitemia, and normalized to the control condition (solvent-treated cells). Data are presented as the mean ± SEM; N = 4. Differences between the control condition and the treatment were considered significant at ** p < 0.01; *** p < 001.
P. falciparum strain FCR3 culture was performed in RPMI 1640 medium containing 10% Albumax, at 5% hematocrit, in a 5% O2, 3% CO2 atmosphere. […] Parasitemia was determined after 48 h and 96 h (after one or two complete parasite’s cycles, respectively) by flow cytometry (FACS), as previously described.
as §1

[10] = displacement of 10 nM (3H) PK 11195, mean ± SEM, N = 3, read-out: IC50, TSPO ligands' affinity for RBC membranes

Compound | hemolysis ([1]; red blood cells (RBCs)) [%] | ZnPPIX uptake increase (effect in words) [2] | t1/2 of sorbitol-induced hemolysis relative to control samples [3] | effect on cholesterol uptake [4] | induction of ATP release (comparison between ligands) [5] | ligand-induced ATP release in presence of VDAC blocker Bcl-XLBH4 [5] | ligand-induced ATP release in presence of pannexin-1 inhibitors [5] | non-lytic ATP efflux from RBCs [6] | IC50 [7, 10] [µM] | hemolysis [1] [%] | also measured
CCN(CC)C(=O)Cn1c(=O)n2cc(-c3ccco3)nc2c2ccccc21 [NCS1018, N,N-Diethyl-2-(2-(furan-2-yl)-5-oxomidazo[1-c]quinazolin-6(5H)-yl)acetamide] | 0.72 ± 0.06 | no significant effect | eight-fold higher | did not alter cholesterol uptake | most efficient in inducing ATP release | significantly inhibited | not affected | triggered non-lytic ATP efflux | 0.59 ± 0.07 |  | 
CCCN(CCC)C(=O)Cn1c(=O)n2cc(-c3ccccc3)nc2c2ccccc21 [NCS1026, N,N-dipropyl-2-(5-oxo-2-phenylimidazo[1-c]quinazolin-6(5H)-yl)acetamide] | 0.52 ± 0.06 | no significant effect | three-fold higher |  |  |  |  |  | 0.28 ± 0.06 |  | inhibition of cholesterol uptake ([4]; 1 h of incubation): 40%; inhibition of cholesterol uptake ([4]; 5 h of incubation): 20%; IC50 [8]: 0.01 µM
CN1C(=O)CN=C(c2ccc(Cl)cc2)c2cc(Cl)ccc21 [Ro5-4864, reference compound] |  |  | eight-fold higher | did not alter cholesterol uptake | a bit lower | significantly inhibited | not affected | triggered non-lytic ATP efflux |  | 0.68 ± 0.16 | IC50 [7]: 1.5 ± 0.6 µM
CC(C)CCC[C@@H](C)[C@H]1CC[C@H]2[C@@H]3CCC4=CC(=NO)CC[C@]4(C)[C@H]3CC[C@]12C [TRO19622] |  |  |  |  |  |  |  | triggered non-lytic ATP efflux |  |  | 
CN(C)C(=O)Cc1nn(-c2ccccc2)c(=O)c2c1c1ccc(Cl)cc1n2C [SSR-180,575, reference compound] | 0.7 ± 0.08 |  |  | did not alter cholesterol uptake |  |  |  |  |  |  | anti-plasmodium activity (comparison between ligands) [9]: highest anti-plasmodium activity trend
CCC(C)N(C)C(=O)c1cc2ccccc2c(-c2ccccc2Cl)n1 (stereo not drawn) [PK 11195, reference compound] |  |  | three-fold higher |  |  |  |  |  |  | 0.6 ± 0.06 | 
